Test system: 695427-040-R-J1-PDC complex spheroid viability
Test: Anticancer human tumor 695427-040-R-J1-PDC patient-derived colon adenocarcinoma cell line growth inhibition [POLQ]
Details: for IC50: curve of first compound; for viability, T/C: stronger effect = lower value
How it was run: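 Growth inhibition in 3D: complex spheroids (tumor PDC, HUVEC, MSC) treated with POLQ inhibitor combinations; where Cmax unknown, highest tested concentration 10 microM, except SN-38 at 1 microM.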

[1] = second compound 0.0316 µM, first compound 0.0316 µM
[2] = second compound 0.0316 µM, first compound 0.1 µM
[3] = second compound 0.0316 µM, first compound 0.316 µM
[4] = second compound 0.0316 µM, first compound 1 µM
[5] = second compound 0.0316 µM, first compound 3.16 µM
[6] = second compound 0.0316 µM, first compound 10 µM
[7] = second compound 0.1 µM, first compound 0.0316 µM
[8] = second compound 0.1 µM, first compound 0.1 µM
[9] = second compound 0.1 µM, first compound 0.316 µM
[10] = second compound 0.1 µM, first compound 1 µM
[11] = second compound 0.1 µM, first compound 3.16 µM
[12] = second compound 0.1 µM, first compound 10 µM
[13] = second compound 0.316 µM, first compound 0.0316 µM
[14] = second compound 0.316 µM, first compound 0.1 µM
[15] = second compound 0.316 µM, first compound 0.316 µM
[16] = second compound 0.316 µM, first compound 1 µM
[17] = second compound 0.316 µM, first compound 3.16 µM
[18] = second compound 0.316 µM, first compound 10 µM
[19] = second compound 1 µM, first compound 0.0316 µM
[20] = second compound 1 µM, first compound 0.1 µM
[21] = second compound 1 µM, first compound 0.316 µM
[22] = second compound 1 µM, first compound 1 µM
[23] = second compound 1 µM, first compound 3.16 µM
[24] = second compound 1 µM, first compound 10 µM
[25] = second compound 3.16 µM, first compound 0.0316 µM
[26] = second compound 3.16 µM, first compound 0.1 µM
[27] = second compound 3.16 µM, first compound 0.316 µM
[28] = second compound 3.16 µM, first compound 1 µM
[29] = second compound 3.16 µM, first compound 3.16 µM
[30] = second compound 3.16 µM, first compound 10 µM
[31] = second compound 10 µM, first compound 0.0316 µM
[32] = second compound 10 µM, first compound 0.1 µM
[33] = second compound 10 µM, first compound 0.316 µM
[34] = second compound 10 µM, first compound 1 µM
[35] = second compound 10 µM, first compound 3.16 µM
[36] = second compound 10 µM, first compound 10 µM
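Also: spheroids exposed to compounds for seven days.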
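For viability, T/C in this document: 100% = DMSO vehicle control viability.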

Compound `CC1COCCN1c1cc(C2(O)CC3CCC(C2)O3)c2cnn(-c3ccn[nH]3)c2n1` (stereo not drawn) + COC1C(OC(N)=O)C(O)C(Oc2ccc3c(O)c(NC(=O)c4ccc(O)c(CC=C(C)C)c4)c(=O)oc3c2C)OC1(C)C has an IC50 (second compound 0.0316 µM) of 3.94 µM, an IC50 (second compound 0.1 µM) of 4.71 µM and an IC50 (second compound 0.316 µM) of 5.84 µM. It also gave an IC50 (second compound 1 µM) of 4.12 µM, an IC50 (second compound 3.16 µM) of 4.5 µM and an IC50 (second compound 10 µM) of 4.12 µM. The viability, T/C [1] was 105%, the viability, T/C [2] was 86.8% and the viability, T/C [3] was 75.3%. It also gave a viability, T/C [4] of 64.9%, a viability, T/C [5] of 50.9% and a viability, T/C [6] of 41.9%. For the same compound, the viability, T/C [7] was 116%, the viability, T/C [8] was 88.6% and the viability, T/C [9] was 79.1%. It also gave a viability, T/C [10] of 61.5%, a viability, T/C [11] of 52.6% and a viability, T/C [12] of 44.9%. It also gave a viability, T/C [13] of 99.9%, a viability, T/C [14] of 84.7% and a viability, T/C [15] of 83.7%. For the same compound, the viability, T/C [16] was 71.2%, the viability, T/C [17] was 54.3% and the viability, T/C [18] was 44.6%. The viability, T/C [19] was 97.9%, the viability, T/C [20] was 91% and the viability, T/C [21] was 75.9%. The viability, T/C [22] was 64%, the viability, T/C [23] was 51% and the viability, T/C [24] was 45%. For the same compound, the viability, T/C [25] was 102%, the viability, T/C [26] was 91.2% and the viability, T/C [27] was 80%. It also gave a viability, T/C [28] of 62.6%, a viability, T/C [29] of 52.4% and a viability, T/C [30] of 45.3%. For the same compound, the viability, T/C [31] was 129%, the viability, T/C [32] was 91.8% and the viability, T/C [33] was 77.4%. The viability, T/C [34] was 63.9%, the viability, T/C [35] was 50.3% and the viability, T/C [36] was 44.6%.

With `CC(=O)O[C@H]1C(=O)[C@@]2(C)[C@H]([C@H](OC(=O)c3ccccc3)[C@]3(O)C[C@H](OC(=O)[C@H](O)[C@@H](NC(=O)c4ccccc4)c4ccccc4)C(C)=C1C3(C)C)[C@]1(OC(C)=O)CO[C@@H]1C[C@@H]2O` + Cc1cccc(N(C)C(=O)C2C(O)CCN2c2nc(C)cc(C(F)(F)F)c2C#N)c1 the IC50 (second compound 0.0316 µM) was greater than 3 µM, the IC50 (second compound 0.1 µM) was greater than 3 µM and the IC50 (second compound 0.316 µM) was greater than 3 µM. For the same compound, the IC50 (second compound 1 µM) was greater than 3 µM, the IC50 (second compound 3.16 µM) was greater than 3 µM and the IC50 (second compound 10 µM) was greater than 3 µM. It also gave a viability, T/C (second compound 0.0316 µM, first compound 0.00949 µM) of 96.5%, a viability, T/C (second compound 0.0316 µM, first compound 0.03 µM) of 102% and a viability, T/C (second compound 0.0316 µM, first compound 0.0949 µM) of 96.3%. It also gave a viability, T/C (second compound 0.0316 µM, first compound 0.3 µM) of 98.9%, a viability, T/C (second compound 0.0316 µM, first compound 0.949 µM) of 94.7% and a viability, T/C (second compound 0.0316 µM, first compound 3 µM) of 77.9%. For the same compound, the viability, T/C (second compound 0.1 µM, first compound 0.00949 µM) was 112%, the viability, T/C (second compound 0.1 µM, first compound 0.03 µM) was 106% and the viability, T/C (second compound 0.1 µM, first compound 0.0949 µM) was 91.8%. It also gave a viability, T/C (second compound 0.1 µM, first compound 0.3 µM) of 95.3%, a viability, T/C (second compound 0.1 µM, first compound 0.949 µM) of 98.3% and a viability, T/C (second compound 0.1 µM, first compound 3 µM) of 79.7%. It also gave a viability, T/C (second compound 0.316 µM, first compound 0.00949 µM) of 111%, a viability, T/C (second compound 0.316 µM, first compound 0.03 µM) of 94.8% and a viability, T/C (second compound 0.316 µM, first compound 0.0949 µM) of 95%. It also gave a viability, T/C (second compound 0.316 µM, first compound 0.3 µM) of 89.5%, a viability, T/C (second compound 0.316 µM, first compound 0.949 µM) of 104% and a viability, T/C (second compound 0.316 µM, first compound 3 µM) of 78.7%. For the same compound, the viability, T/C (second compound 1 µM, first compound 0.00949 µM) was 102%, the viability, T/C (second compound 1 µM, first compound 0.03 µM) was 93.3% and the viability, T/C (second compound 1 µM, first compound 0.0949 µM) was 91.9%. For the same compound, the viability, T/C (second compound 1 µM, first compound 0.3 µM) was 98.3%, the viability, T/C (second compound 1 µM, first compound 0.949 µM) was 101% and the viability, T/C (second compound 1 µM, first compound 3 µM) was 73.1%. It also gave a viability, T/C (second compound 3.16 µM, first compound 0.00949 µM) of 97.4%, a viability, T/C (second compound 3.16 µM, first compound 0.03 µM) of 94.2% and a viability, T/C (second compound 3.16 µM, first compound 0.0949 µM) of 91.8%. The viability, T/C (second compound 3.16 µM, first compound 0.3 µM) was 88.8%, the viability, T/C (second compound 3.16 µM, first compound 0.949 µM) was 97% and the viability, T/C (second compound 3.16 µM, first compound 3 µM) was 80.6%. It also gave a viability, T/C (second compound 10 µM, first compound 0.00949 µM) of 91.3%, a viability, T/C (second compound 10 µM, first compound 0.03 µM) of 83.9% and a viability, T/C (second compound 10 µM, first compound 0.0949 µM) of 87.9%. For the same compound, the viability, T/C (second compound 10 µM, first compound 0.3 µM) was 85.1%, the viability, T/C (second compound 10 µM, first compound 0.949 µM) was 94.8% and the viability, T/C (second compound 10 µM, first compound 3 µM) was 84.2%.

Compound `COc1cccc2c1C(=O)c1c(O)c3c(c(O)c1C2=O)CC(O)(C(=O)CO)CC3OC1CC(N)C(O)C(C)O1` (stereo not drawn) + Cc1cccc(N(C)C(=O)C2C(O)CCN2c2nc(C)cc(C(F)(F)F)c2C#N)c1 has an IC50 (second compound 0.0316 µM) greater than 10 µM, an IC50 (second compound 0.1 µM) greater than 10 µM and an IC50 (second compound 0.316 µM) greater than 10 µM. It also gave an IC50 (second compound 1 µM) greater than 10 µM, an IC50 (second compound 3.16 µM) of 8.57 µM and an IC50 (second compound 10 µM) of 4.41 µM. It also gave a viability, T/C [1] of 97.7%, a viability, T/C [2] of 96.5% and a viability, T/C [3] of 89.7%. For the same compound, the viability, T/C [4] was 75.1%, the viability, T/C [5] was 67.7% and the viability, T/C [6] was 51%. It also gave a viability, T/C [7] of 105%, a viability, T/C [8] of 88.3% and a viability, T/C [9] of 95.6%. The viability, T/C [10] was 69%, the viability, T/C [11] was 66.4% and the viability, T/C [12] was 55.9%. For the same compound, the viability, T/C [13] was 103%, the viability, T/C [14] was 91.8% and the viability, T/C [15] was 89.1%. It also gave a viability, T/C [16] of 72.1%, a viability, T/C [17] of 78.6% and a viability, T/C [18] of 55.7%. For the same compound, the viability, T/C [19] was 97.5%, the viability, T/C [20] was 83.1% and the viability, T/C [21] was 87.3%. The viability, T/C [22] was 75.2%, the viability, T/C [23] was 67.5% and the viability, T/C [24] was 53.9%. It also gave a viability, T/C [25] of 96.6%, a viability, T/C [26] of 87.9% and a viability, T/C [27] of 83.3%. For the same compound, the viability, T/C [28] was 75.7%, the viability, T/C [29] was 64.9% and the viability, T/C [30] was 46.8%. The viability, T/C [31] was 81.6%, the viability, T/C [32] was 78.9% and the viability, T/C [33] was 73.3%. It also gave a viability, T/C [34] of 57.7%, a viability, T/C [35] of 56.4% and a viability, T/C [36] of 41.8%.

Work on `O=c1[nH]cc(F)c(=O)[nH]1` + Cc1cccc(N(C)C(=O)C2C(O)CCN2c2nc(C)cc(C(F)(F)F)c2C#N)c1 yielded an IC50 (second compound 0.0316 µM) greater than 10 µM, an IC50 (second compound 0.1 µM) greater than 10 µM and an IC50 (second compound 0.316 µM) greater than 10 µM. It also gave an IC50 (second compound 1 µM) greater than 10 µM, an IC50 (second compound 3.16 µM) greater than 10 µM and an IC50 (second compound 10 µM) greater than 10 µM. For the same compound, the viability, T/C [1] was 105%, the viability, T/C [2] was 94.5% and the viability, T/C [3] was 95.2%. For the same compound, the viability, T/C [4] was 98.1%, the viability, T/C [5] was 106% and the viability, T/C [6] was 98.2%. For the same compound, the viability, T/C [7] was 106%, the viability, T/C [8] was 102% and the viability, T/C [9] was 102%. It also gave a viability, T/C [10] of 101%, a viability, T/C [11] of 109% and a viability, T/C [12] of 97%. For the same compound, the viability, T/C [13] was 112%, the viability, T/C [14] was 102% and the viability, T/C [15] was 99.1%. For the same compound, the viability, T/C [16] was 104%, the viability, T/C [17] was 101% and the viability, T/C [18] was 99.5%. The viability, T/C [19] was 105%, the viability, T/C [20] was 100% and the viability, T/C [21] was 108%. It also gave a viability, T/C [22] of 101%, a viability, T/C [23] of 93% and a viability, T/C [24] of 88.4%. The viability, T/C [25] was 96%, the viability, T/C [26] was 103% and the viability, T/C [27] was 101%. The viability, T/C [28] was 97.4%, the viability, T/C [29] was 101% and the viability, T/C [30] was 103%. It also gave a viability, T/C [31] of 90.6%, a viability, T/C [32] of 94.8% and a viability, T/C [33] of 87.5%. The viability, T/C [34] was 96.3%, the viability, T/C [35] was 92.8% and the viability, T/C [36] was 84.8%.
